This test has as its target recombinant USP30 (amino acids 57-517 of the human sequence) (Homo sapiens (Human), UniProt Q70CQ3). Kind of test: In vitro USP30 biochemical assay (Ubiquitin-Rhodamine).
The mark [1] stands for this setting: USP30 IC50 μM (avg), Ubiquitin-Rhodamine substrate 25 nM, 1.5 nM recombinant USP30.
The mark [2] stands for this setting: read-out: USP30 IC50 μM (avg), Ubiquitin-Rhodamine substrate 25 nM, 1.5 nM recombinant USP30.

Experimental findings from patent US11845724B2, “USP30 inhibitors and uses thereof” (Vincere Biosciences, Inc., priority 2019, dated 2023) are described below.

Where a name gives a salt, the structure may show the parent alone. Read-outs that look alike come from different tables or passages of the source. A value given as a limit tells only on which side of the number the result lay.

Chain of recombinant USP30 (amino acids 57-517 of the human sequence) (Q70CQ3 57-517): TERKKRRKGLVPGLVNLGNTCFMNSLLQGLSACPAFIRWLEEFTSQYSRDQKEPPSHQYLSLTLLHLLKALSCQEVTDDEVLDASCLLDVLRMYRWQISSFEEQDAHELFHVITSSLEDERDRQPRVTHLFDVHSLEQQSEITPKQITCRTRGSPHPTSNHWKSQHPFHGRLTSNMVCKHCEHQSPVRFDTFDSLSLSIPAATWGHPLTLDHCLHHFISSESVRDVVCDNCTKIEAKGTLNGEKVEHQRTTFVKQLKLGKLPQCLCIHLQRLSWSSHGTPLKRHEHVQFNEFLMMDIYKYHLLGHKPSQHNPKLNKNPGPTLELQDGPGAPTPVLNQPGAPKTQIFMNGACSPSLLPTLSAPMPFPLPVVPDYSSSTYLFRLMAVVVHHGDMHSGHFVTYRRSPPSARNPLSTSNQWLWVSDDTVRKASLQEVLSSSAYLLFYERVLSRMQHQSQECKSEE

Regarding `C#CC(C)(C)NS(=O)(=O)c1ccc(NC(=O)[C@H](Cc2ccccc2)NC(=O)c2ccc(F)cc2)cc1OC` [Compound I-181, (S)-4-fluoro-N-(1-(3-methoxy-4-(N-(2-methylbut-3-yn-2-yl)sulfamoyl)phenylamino)-1-oxo-3-phenylpropan-2-yl)benzamide], the IC50 (as a rule, the concentration needed to halve the response being measured) under setting [1] fell in the range of 0.05 to 1 µM.
The same measure, in the same setting: under `COCCC(C)(C)NS(=O)(=O)c1ccc(NC(=O)[C@H](Cc2ccccc2)NC(=O)c2ccc(F)cc2)cc1Cl` [Compound I-171, (S)-N-(1-(3-chloro-4-(N-(4-methoxy-2-methylbutan-2-yl)sulfamoyl)phenylamino)-1-oxo-3-phenylpropan-2-yl)-4-fluorobenzamide] stands 0.05 to 1 µM.
Regarding `COc1cc(NC(=O)[C@H](Cc2ccccc2)NC(=O)c2ccc(F)cc2)ccc1S(=O)(=O)N[C@@H]1CCOC1` [Compound I-183, 4-fluoro-N-((S)-1-(3-methoxy-4-(N-((R)-tetrahydrofuran-3-yl)sulfamoyl)phenylamino)-1-oxo-3-phenylpropan-2-yl)benzamide], under setting [2], the IC50 is below 0.05 µM.
For `CC(C)(CCN1CCOCC1)NS(=O)(=O)c1ccc(NC(=O)[C@H](Cc2ccccc2)NC(=O)c2ccc(F)cc2)cc1` [Compound I-163, (S)-4-fluoro-N-(1-(4-(N-(2-methyl-4-morpholinobutan-2-yl)sulfamoyl)phenylamino)-1-oxo-3-phenylpropan-2-yl)benzamide], the IC50 under setting [2] was below 0.05 µM.
Same read-out and setting: the value for `COc1cc(NC(=O)[C@H](Cc2ccccc2)NC(=O)c2ccc(F)cc2)ccc1S(=O)(=O)N[C@H]1CCOC1` [Compound I-182, 4-fluoro-N-((S)-1-(3-methoxy-4-(N-((S)-tetrahydrofuran-3-yl)sulfamoyl)phenylamino)-1-oxo-3-phenylpropan-2-yl)benzamide] was below 0.05 µM; that for `CC(C)(C)NS(=O)(=O)c1ccc(NC(=O)[C@H](Cc2ccccc2)NC(=O)c2ccc(F)cc2)cc1Cl` [Compound I-168, (S)-N-(1-(4-(N-tert-butylsulfamoyl)-3-chlorophenylamino)-1-oxo-3-phenylpropan-2-yl)-4-fluorobenzamide] was below 0.05 µM; that for `O=C(NC1(C(=O)Nc2ccc(S(=O)(=O)NC3CC3)cc2)Cc2ccccc2C1)c1ccc(F)cc1` [Compound I-103, N-(4-(N-cyclopropylsulfamoyl)phenyl)-2-(4-fluorobenzamido)-2,3-dihydro-1H-indene-2-carboxamide] was above 10 µM.
`CC(C)(C)NS(=O)(=O)c1ccc(NC(=O)[C@H](Cc2ccccc2)NC(=O)c2ccc(F)cc2)cc1C#N` [Compound I-167, (S)-N-(1-(4-(N-tert-butylsulfamoyl)-3-cyanophenylamino)-1-oxo-3-phenylpropan-2-yl)-4-fluorobenzamide]: the IC50 under setting [2] is below 0.05 µM.
As for `CN(C)CCNS(=O)(=O)c1ccc(NC(=O)[C@H](Cc2ccccc2)NC(=O)c2ccc(F)cc2)cn1` [Compound I-109, (S)-N-(1-(6-(N-(2-(dimethylamino)ethyl)sulfamoyl)pyridin-3-ylamino)-1-oxo-3-phenylpropan-2-yl)-4-fluorobenzamide formate], the IC50 under setting [1] is 1 to 10 µM.
On the same count and under the same terms, the value for `N#Cc1cc(NC(=O)[C@H](Cc2ccccc2)NC(=O)c2ccc(F)cc2)ccc1S(=O)(=O)NC12CC(C1)C2` [Compound I-166, (S)-N-(1-(4-(N-bicyclo[1.1.1]pentan-1-ylsulfamoyl)-3-cyanophenylamino)-1-oxo-3-phenylpropan-2-yl)-4-fluorobenzamide] was 0.05 to 1 µM; that for `CC(C)(C#N)NS(=O)(=O)c1ccc(NC(=O)[C@H](Cc2ccccc2)NC(=O)c2ccc(F)cc2)cc1` [Compound I-172, (S)-N-(1-(4-(N-(2-cyanopropan-2-yl)sulfamoyl)phenylamino)-1-oxo-3-phenylpropan-2-yl)-4-fluorobenzamide] was 0.05 to 1 µM; that for `COc1cc(NC(=O)[C@H](Cc2ccccc2)NC(=O)c2ccc(F)cc2)ccc1S(=O)(=O)NC(C)(C)CCN1CCOCC1` [Compound I-154, (S)-4-fluoro-N-(1-(3-methoxy-4-(N-(2-methyl-4-morpholinobutan-2-yl)sulfamoyl)phenylamino)-1-oxo-3-phenylpropan-2-yl)benzamide] was 0.05 to 1 µM.
With `O=C(N[C@@H](Cc1ccccc1)C(=O)Nc1ccc(S(=O)(=O)N[C@@H]2CCOC2)nc1)c1ccc(F)cc1` [Compound I-179, 4-fluoro-N-((S)-1-oxo-3-phenyl-1-(6-(N-((R)-tetrahydrofuran-3-yl)sulfamoyl)pyridin-3-ylamino)propan-2-yl)benzamide], the IC50 under setting [1] lay in the range of 0.05 to 1 µM.
On the same count and under the same terms, under `COCC(C)(C)NS(=O)(=O)c1ccc(NC(=O)[C@H](Cc2ccccc2)N(C)C(=O)c2ccc(F)cc2)cc1OC` [Compound I-159, (S)-4-fluoro-N-(1-(3-methoxy-4-(N-(1-methoxy-2-methylpropan-2-yl)sulfamoyl)phenylamino)-1-oxo-3-phenylpropan-2-yl)-N-methylbenzamide] stands 1 to 10 µM.
For `C#CC(C)(C)NS(=O)(=O)c1ccc(NC(=O)[C@H](Cc2ccccc2)NC(=O)c2ccc(F)cc2)cc1` [Compound I-173, (S)-4-fluoro-N-(1-(4-(N-(2-methylbut-3-yn-2-yl)sulfamoyl)phenylamino)-1-oxo-3-phenylpropan-2-yl)benzamide], the IC50 under setting [2] is below 0.05 µM.
With `O=C(N[C@@H](Cc1ccccc1)C(=O)Nc1ccc(S(=O)(=O)NC23CC(C2)C3)c(Cl)c1)c1ccc(F)cc1` [Compound I-169, (S)-N-(1-(4-(N-bicyclo[1.1.1]pentan-1-ylsulfamoyl)-3-chlorophenylamino)-1-oxo-3-phenylpropan-2-yl)-4-fluorobenzamide], under setting [1], the IC50 lay within 0.05 to 1 µM.
With `O=C(N[C@@H](Cc1ccccc1)C(=O)Nc1ccc(S(=O)(=O)NCCO)nc1)c1ccc(F)cc1` [Compound I-110, (S)-4-fluoro-N-(1-(6-(N-(2-hydroxyethyl)sulfamoyl)pyridin-3-ylamino)-1-oxo-3-phenylpropan-2-yl)benzamide], the half-maximal inhibitory concentration (IC50) under setting [1] is 0.05 to 1 µM.
Consider `CC(C)(C)NS(=O)(=O)c1ccc(NC(=O)[C@H](Cc2ccccc2)NS(=O)(=O)c2ccc(F)cc2)cc1` [Compound I-165, (S)-N-(4-(N-tert-butylsulfamoyl)phenyl)-2-(4-fluorophenylsulfonamido)-3-phenylpropanamide], for which the IC50 under setting [2] was above 10 µM.
The same measure, in the same setting: under `CN(C)S(=O)(=O)c1cccc2c(NC(=O)[C@H](Cc3ccccc3)NC(=O)C3CCCCC3)cccc12` [Compound I-127, (S)-N-(1-(5-(N,N-dimethylsulfamoyl)naphthalen-1-ylamino)-1-oxo-3-phenylpropan-2-yl)cyclohexanecarboxamide] stands above 10 µM.
Turning to `COc1cc(NC(=O)[C@H](Cc2ccccc2)NC(=O)c2ccc(F)cc2)ccc1S(=O)(=O)NC(C)(C)CN1CCOCC1` [Compound I-153, (S)-4-fluoro-N-(1-(3-methoxy-4-(N-(2-methyl-1-morpholinopropan-2-yl)sulfamoyl)phenylamino)-1-oxo-3-phenylpropan-2-yl)benzamide], under setting [1], the IC50 is 0.05 to 1 µM.
For the compound `O=C(N[C@@H](Cc1ccccc1)C(=O)Nc1ccc(S(=O)(=O)N[C@H]2CCOC2)cc1)c1ccc(F)cc1` [Compound I-174, 4-fluoro-N-((S)-1-oxo-3-phenyl-1-(4-(N-((S)-tetrahydrofuran-3-yl)sulfamoyl)phenylamino)propan-2-yl)benzamide], the IC50 under setting [2] was below 0.05 µM.
